Blank lines part the entries; values can stand above or below the molecule they belong to.
Columns and labels:
Assay type in all cases: physicochemical
[1] = Storage stability study of solid forms, HPLC purity (Example 11)
Description: (§1) Form A and F samples were placed in chambers with silica gel to remove water (the relative humidity was measured to be ˜10% RH) at different temperatures. Form D samples were placed in chambers with water (relative humidity was estimated to be ˜100% RH) at different temperatures.
(§2) The HPLC purities and XRD patterns were obtained for each of Form A/F/D samples stored at various temperatures.

[2] = Storage stability study of solid forms, form change by XRD (Example 11)
Description: For X-ray powder diffraction analysis, a PANalytical Empyrean X-ray powder diffractometer was used. The parameters are as follows:
as §1, §2

[3] = Physical form stability to grinding and sieving (XRD before and after)
Description: A sample of sepiapterin free base was obtained commercially. […] The sepiapterin sample contained particles with an average particle size over 100 μm. The XRD pattern was determined before and after grinding to reduce the particle size such that it passes through a 140 mesh screen. This polymorph of sepiapterin free base is referred to as Form A herein.

[4] = Storage stability of polymorphs, HPLC sepiapterin and impurity profile (Example 12); parameters: Impurity RRT 1.06 / Impurity RRT 1.08 / Impurity RRT 1.17 / Impurity RRT 1.21 / Impurity RRT 1.25 / Impurity RRT 0.62 / Impurity RRT 0.89 / Impurity RRT 0.95 / Impurity RRT 0.60: unit not given here
Description: Samples of sepiapterin free base polymorph Forms D, F, and A were stored at room temperature (RT), 35° C., and 50° C. The samples were analyzed by HPLC at 1 week and 4 week intervals. The HPLC parameters were as follows: [table]

[5] = 35° C., 10% RH, storage 4 weeks
[6] = 50° C., 10% RH, storage 4 weeks
[7] = 35° C./10% RH, 1 w, listed as Polymorph A
[8] = 35° C./10% RH, 4 w, listed as Polymorph A
[9] = 50° C./10% RH, 1 w, listed as Polymorph A
[10] = 50° C./10% RH, 4 w, listed as Polymorph A
[11] = RT/10% RH, 1 w, listed as Polymorph A
[12] = RT/10% RH, 4 w, listed as Polymorph A
[13] = 35° C., 100% RH, storage 1 week
[14] = 35° C., 100% RH, storage 4 weeks
[15] = 50° C., 100% RH, storage 1 week
[16] = 50° C., 100% RH, storage 4 weeks

- % of Initial ([1]; 35° C., 10% RH, storage 1 week): 98.6%
- Purity (area %) ([1]; 35° C., 10% RH, storage 1 week): 98.0 area %
- % of Initial [1, 5]: 96.7%
- Purity (area %) [1, 5]: 96.1 area %
- % of Initial ([1]; 50° C., 10% RH, storage 1 week): 95.8%
- Purity (area %) ([1]; 50° C., 10% RH, storage 1 week): 95.2 area %
- % of Initial [1, 6]: 89.1%
- Purity (area %) [1, 6]: 88.5 area %
- % of Initial ([1]; RT, 10% RH, storage 1 week): 99.5%
- Purity (area %) ([1]; RT, 10% RH, storage 1 week): 98.8 area %
- % of Initial ([1]; RT, 10% RH, storage 4 weeks): 98.8%
- Purity (area %) ([1]; RT, 10% RH, storage 4 weeks): 98.2 area %
- purity of initial samples by HPLC ([1]; initial, before storage): 99.3 area %
- stability as determined by HPLC (in words) ([1]; storage at RT, 35° C., 50° C., 1 and 4 weeks): significantly less stability
- Form change ([2]; 35° C., 10% RH, storage 1 week): No
- Form change [2, 5]: No
- Form change ([2]; 50° C., 10% RH, storage 1 week): No
- Form change [2, 6]: No
- Form change ([2]; RT, 10% RH, storage 1 week): No
- Form change ([2]; RT, 10% RH, storage 4 weeks): No
- physical form stability to grinding and sieving [3]: confirms the physical form stability
- Impurity RRT 0.62 ([4]; 35° C./10% RH, 1 w): 0.24
- Impurity RRT 0.89 ([4]; 35° C./10% RH, 1 w): <0.05
- Impurity RRT 1.06 ([4]; 35° C./10% RH, 1 w): <0.05
- Impurity RRT 1.21 ([4]; 35° C./10% RH, 1 w): <0.05
- Impurity RRT 1.25 ([4]; 35° C./10% RH, 1 w): <0.05
- Impurity RRT 0.95 [4, 7]: 1.36
- Impurity RRT 1.08 [4, 7]: 0.28
- Impurity RRT 1.17 [4, 7]: 0.16
- Sepiapterin RRT 1.00 (amount of sepiapterin) [4, 7]: 97.97%
- Impurity RRT 0.62 ([4]; 35° C./10% RH, 4 w): 1.03
- Impurity RRT 0.89 ([4]; 35° C./10% RH, 4 w): <0.05
- Impurity RRT 1.06 ([4]; 35° C./10% RH, 4 w): <0.05
- Impurity RRT 1.08 ([4]; 35° C./10% RH, 4 w): <0.05
- Impurity RRT 1.21 ([4]; 35° C./10% RH, 4 w): <0.05
- Impurity RRT 1.25 ([4]; 35° C./10% RH, 4 w): <0.05
- Impurity RRT 0.95 [4, 8]: 2.70
- Impurity RRT 1.17 [4, 8]: 0.16
- Sepiapterin RRT 1.00 (amount of sepiapterin) [4, 8]: 96.06%
- Impurity RRT 0.62 ([4]; 50° C./10% RH, 1 w): 0.68
- Impurity RRT 0.89 ([4]; 50° C./10% RH, 1 w): <0.05
- Impurity RRT 1.06 ([4]; 50° C./10% RH, 1 w): 0.45
- Impurity RRT 1.21 ([4]; 50° C./10% RH, 1 w): <0.05
- Impurity RRT 1.25 ([4]; 50° C./10% RH, 1 w): <0.05
- Impurity RRT 0.95 [4, 9]: 3.48
- Impurity RRT 1.08 [4, 9]: 0.08
- Impurity RRT 1.17 [4, 9]: 0.16
- Sepiapterin RRT 1.00 (amount of sepiapterin) [4, 9]: 95.15%
- Impurity RRT 0.62 ([4]; 50° C./10% RH, 4 w): 2.59
- Impurity RRT 0.89 ([4]; 50° C./10% RH, 4 w): 0.06
- Impurity RRT 1.06 ([4]; 50° C./10% RH, 4 w): <0.05
- Impurity RRT 1.17 ([4]; 50° C./10% RH, 4 w): 0.17
- Impurity RRT 1.21 ([4]; 50° C./10% RH, 4 w): 0.06
- Impurity RRT 1.25 ([4]; 50° C./10% RH, 4 w): 0.11
- Impurity RRT 0.95 [4, 10]: 7.67
- Impurity RRT 1.08 [4, 10]: 0.85
- Sepiapterin RRT 1.00 (amount of sepiapterin) [4, 10]: 88.49%
- Sepiapterin RRT 1.00 (amount of sepiapterin) ([4]; 50° C./10% RH, 4 w, listed as polymorph A): 88.49%
- Impurity RRT 0.89 ([4]; Initial): <0.05
- Impurity RRT 1.06 ([4]; Initial): <0.05
- Impurity RRT 1.08 ([4]; Initial): <0.05
- Impurity RRT 1.17 ([4]; Initial): 0.17
- Impurity RRT 1.21 ([4]; Initial): <0.05
- Impurity RRT 1.25 ([4]; Initial): <0.05
- Impurity RRT 0.62 ([4]; Initial, listed as Polymorph A): 0.08
- Impurity RRT 0.95 ([4]; Initial, listed as Polymorph A): 0.42
- Sepiapterin RRT 1.00 (amount of sepiapterin) ([4]; Initial, listed as Polymorph A): 99.33%
- Sepiapterin RRT 1.00 (amount of sepiapterin) ([4]; Initial, listed as polymorph A): 99.33%
- Impurity RRT 0.62 ([4]; RT/10% RH, 1 w): 0.16
- Impurity RRT 0.89 ([4]; RT/10% RH, 1 w): <0.05
- Impurity RRT 1.06 ([4]; RT/10% RH, 1 w): <0.05
- Impurity RRT 1.17 ([4]; RT/10% RH, 1 w): 0.16
- Impurity RRT 1.21 ([4]; RT/10% RH, 1 w): <0.05
- Impurity RRT 1.25 ([4]; RT/10% RH, 1 w): <0.05
- Impurity RRT 0.95 [4, 11]: 0.77
- Impurity RRT 1.08 [4, 11]: 0.11
- Sepiapterin RRT 1.00 (amount of sepiapterin) [4, 11]: 98.80%
- Impurity RRT 0.62 ([4]; RT/10% RH, 4 w): 0.37
- Impurity RRT 0.89 ([4]; RT/10% RH, 4 w): <0.05
- Impurity RRT 1.06 ([4]; RT/10% RH, 4 w): <0.05
- Impurity RRT 1.08 ([4]; RT/10% RH, 4 w): <0.05
- Impurity RRT 1.17 ([4]; RT/10% RH, 4 w): 0.16
- Impurity RRT 1.21 ([4]; RT/10% RH, 4 w): <0.05
- Impurity RRT 1.25 ([4]; RT/10% RH, 4 w): <0.05
- Impurity RRT 0.95 [4, 12]: 1.29
- Sepiapterin RRT 1.00 (amount of sepiapterin) [4, 12]: 98.18%
SMILES: C[C@H](O)C(=O)C1=Nc2c(nc(N)[nH]c2=O)NC1 [Form A, sepiapterin]

- % of Initial [1, 13]: 99.7%
- Purity (area %) [1, 13]: 98.8 area %
- % of Initial [1, 14]: 99.6%
- Purity (area %) [1, 14]: 98.7 area %
- % of Initial [1, 15]: 99.3%
- Purity (area %) [1, 15]: 98.5 area %
- % of Initial [1, 16]: 98.5%
- Purity (area %) [1, 16]: 97.7 area %
- % of Initial ([1]; RT, 100% RH, storage 1 week): 99.9%
- Purity (area %) ([1]; RT, 100% RH, storage 1 week): 99.0 area %
- % of Initial ([1]; RT, 100% RH, storage 4 weeks): 99.8%
- Purity (area %) ([1]; RT, 100% RH, storage 4 weeks): 98.9 area %
- Form change [2, 13]: No
- Form change [2, 14]: No
- Form change [2, 15]: No
- Form change [2, 16]: No
- Form change ([2]; RT, 100% RH, storage 1 week): No
- Form change ([2]; RT, 100% RH, storage 4 weeks): No
- physical form stability to grinding and sieving [3]: potential instability
- Impurity RRT 0.62 ([4]; 35° C./100% RH, 1 w): <0.05
- Impurity RRT 0.95 ([4]; 35° C./100% RH, 1 w): 0.86
- Impurity RRT 1.08 ([4]; 35° C./100% RH, 1 w): 0.14
- Impurity RRT 1.17 ([4]; 35° C./100% RH, 1 w): 0.17
- Sepiapterin RRT 1.00 (amount of sepiapterin) ([4]; 35° C./100% RH, 1 w): 98.83%
- Impurity RRT 0.62 ([4]; 35° C./100% RH, 4 w): 0.09
- Impurity RRT 0.95 ([4]; 35° C./100% RH, 4 w): 1.04
- Impurity RRT 1.08 ([4]; 35° C./100% RH, 4 w): <0.05
- Impurity RRT 1.17 ([4]; 35° C./100% RH, 4 w): 0.17
- Sepiapterin RRT 1.00 (amount of sepiapterin) ([4]; 35° C./100% RH, 4 w): 98.70%
- Impurity RRT 0.62 ([4]; 50° C./100% RH, 1 w): 0.08
- Impurity RRT 0.95 ([4]; 50° C./100% RH, 1 w): 1.05
- Impurity RRT 1.08 ([4]; 50° C./100% RH, 1 w): 0.26
- Impurity RRT 1.17 ([4]; 50° C./100% RH, 1 w): 0.16
- Sepiapterin RRT 1.00 (amount of sepiapterin) ([4]; 50° C./100% RH, 1 w): 98.45%
- Impurity RRT 0.62 ([4]; 50° C./100% RH, 4 w): 0.14
- Impurity RRT 0.95 ([4]; 50° C./100% RH, 4 w): 2.03
- Impurity RRT 1.08 ([4]; 50° C./100% RH, 4 w): <0.05
- Impurity RRT 1.17 ([4]; 50° C./100% RH, 4 w): 0.18
- Sepiapterin RRT 1.00 (amount of sepiapterin) ([4]; 50° C./100% RH, 4 w): 97.65%
- Impurity RRT 1.08 ([4]; Initial): <0.05
- Impurity RRT 1.17 ([4]; Initial): 0.17
- Impurity RRT 0.62 ([4]; Initial, listed as Polymorph D): <0.05
- Impurity RRT 0.95 ([4]; Initial, listed as Polymorph D): 0.69
- Sepiapterin RRT 1.00 (amount of sepiapterin) ([4]; Initial, listed as Polymorph D): 99.14%
- Sepiapterin RRT 1.00 (amount of sepiapterin) ([4]; Initial, listed as polymorph D): 99.14%
- Impurity RRT 0.62 ([4]; RT/100% RH, 1 w): <0.05
- Impurity RRT 0.95 ([4]; RT/100% RH, 1 w): 0.83
- Impurity RRT 1.08 ([4]; RT/100% RH, 1 w): <0.05
- Impurity RRT 1.17 ([4]; RT/100% RH, 1 w): 0.16
- Sepiapterin RRT 1.00 (amount of sepiapterin) ([4]; RT/100% RH, 1 w): 99.01%
- Impurity RRT 0.62 ([4]; RT/100% RH, 4 w): 0.09
- Impurity RRT 0.95 ([4]; RT/100% RH, 4 w): 0.81
- Impurity RRT 1.08 ([4]; RT/100% RH, 4 w): <0.05
- Impurity RRT 1.17 ([4]; RT/100% RH, 4 w): 0.17
- Sepiapterin RRT 1.00 (amount of sepiapterin) ([4]; RT/100% RH, 4 w): 98.92%
- stability compared with polymorph A (in words) ([4]; storage at RT, 35° C., 50° C., 1 w and 4 w): significantly greater stability
SMILES: C[C@H](O)C(=O)C1=Nc2c(nc(N)[nH]c2=O)NC1 [Form D, sepiapterin]
